Experimental data published in patent US20130165652A1, “NOVEL HETEROCYCLIC COMPOUND, AND COMPOSITION FOR TREATING INFLAMMATORY DISEASES USING SAME” (NEOPHARM CO.,LTD., priority 2010, published 2013).

How the values were obtained:
PAR-2 [1] = molecular target: T1, PAR-2 (Homo sapiens, UniProt P55085); experiment: Confocal microscopy of PAR-2 activation in KNRK-PAR-2 cell line; type: cell-based; settings: KNRK-PAR-2 cells; [trypsin]=11 μM, [SLIGKV]=100 μM, [Compound 45]=200 μM
T1 sequence (P55085 26-397): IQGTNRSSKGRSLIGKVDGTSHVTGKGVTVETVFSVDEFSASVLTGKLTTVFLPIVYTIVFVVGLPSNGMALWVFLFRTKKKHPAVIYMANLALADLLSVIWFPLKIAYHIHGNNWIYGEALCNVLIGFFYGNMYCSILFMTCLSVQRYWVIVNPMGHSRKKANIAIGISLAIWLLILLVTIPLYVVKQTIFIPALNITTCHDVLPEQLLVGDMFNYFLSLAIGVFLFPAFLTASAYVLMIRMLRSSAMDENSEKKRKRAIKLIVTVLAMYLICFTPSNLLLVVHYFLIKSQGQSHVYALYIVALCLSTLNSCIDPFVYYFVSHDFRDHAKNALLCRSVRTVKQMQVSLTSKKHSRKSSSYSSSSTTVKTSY
Description: In order to visually confirm the activation of the PAR-2, a cell line having the following structure was prepared based on existing references, and activation of the PAR-2 was observed using a confocal microscope. As the cell line, Kirsten Murine Sarcoma Virus transformed rat kidney epithelial cell (KNRK cell) was used. In this cell line, the PAR-2 may not be expressed in a normal state. Each of the N-terminals of […] were tagged with Flag epitope, and each of the C-terminals were tagged with Myc epitope, such that a stable transfected cell was constructed. […] In a state in which the PAR-2 was not activated, Flag and Myc were double stained, such that a yellow image was shown in a merged image. However, in the case in which the PAR-2 was activated, a red image was shown while the Flag is separated.

PAR-2 [2] = molecular target: T1, PAR-2; experiment: PathHunter β-arrestin GPCR assay; type: cell-based; set-up: purchased DiscoveRx Corp; settings: β-arrestin accumulation; SKIGKV-NH2 (10 μM); samples 1000 to 50 μM
Description: An in vitro assay protocol capable of detecting activation of the PAR-2 was additionally introduced in addition to a calcium immobilization assay to measure the activity of the selected materials. First, the PAR-2 inhibitory activities of two kinds of samples were measured using a PathHunter™ β-arrestin GPCR assay kit (DiscoveRx Corp.) capable of detecting accumulation of β-arrestin, which is an intracellular reaction firstly generated by the activation of the PAR-2. Experiments were conducted by diluting concentrations of the samples by one-half, ranging from 1000 to 50 μM and SKIGKV-NH2 (10 μM) was treated with the PAR-2 […]. As an experimental result, suppression of β-arrestin was confirmed in both of the two kinds of samples at a concentration of 500 μM. As a measurement result, it was observed that IC50 values were different from those in calcium immobilization assay (See Table 1).

[3] = system: oxazolone induced chronic dermatitis; experiment: Oxazolone induced chronic dermatitis animal model; type: in vivo, hairless mouse (SKH-1); settings: hairless mice, applied once a day for 3 days
Description: Effects of the selected materials were evaluated using chronic dermatitis animal model. Oxazolone induced chronic dermatitis animal model by continuously applying oxazolone, which is a kind of hapten, to a hairless mouse was used. It was reported that various symptoms of atopic dermatitis relatively accurately appear in recently developed oxazolone model, and the present inventors also confirmed through the prior study that various symptoms of general atopic dermatitis appear similarly to clinically appearing symptoms. In order to construct the chronic dermatitis animal model, 5% oxazolone was applied and sensitized to the hairless mice (SKH-1, 6 weeks old). After 1 week, 0.1% oxazolone was applied every other day for 2 weeks, thereby induced the symptoms of dermatitis. After samples were applied to the dermatitis induced animal once a day for 3 days, changes in various skin functions and a skin thickness were observed. Finally, biopsy was performed on skin tissue, and histological observation was conducted. As a positive control group used in the experiment, 0.05% desonide formulation, which is a steroid having relatively weak potency, was used, and changes in trans-epidermal water loss (TEWL) skin hydration in stratum cornea, and skin thickness were observed.

PAR-2 [4] = molecular target: T1, PAR-2; experiment: Calcium immobilization assay (Calcium-4 assay kit); type: cell-based; settings: HCT-15 cells over-expressing PAR-2; activating peptide (AP) as PAR-2 activating agent; inhibitor treated for 5 minutes before AP
Description: In order to evaluate inhibitory activity of the synthesized materials against the PAR-2, primarily, an assay system in which a concentration of calcium ions in cell may be measured in real time was constructed, and evaluation was conducted using this system. The PAR-2 is a kind of G-protein coupled receptors (GPCR), and when the PAR-2 is activated in cell, phospholipase C-b (PLC-b) decomposes phosphatidylinositol 4,5-bisphosphate (PIP2) into inositol triphosphate (IP3) and diacyl glycerol (DAG) while being activated. IP3 generated at this time stimulates secretion of calcium ions in endoplasmic reticulum (ER), which is a storage of calcium ions in a cell, such that the concentration of calcium ions in the cell is increased. Based on an existing study result, an in vitro screening assay system capable of detecting a material capable of suppressing the concentration of calcium ions in the cell from being increased by activation of PAR-2 was constructed. As a PAR-2 activating agent, activating peptide (AP) was used, and as a reagent for detecting the concentration of calcium ion in the cell, a Calcium-4 assay kit produced (Molecular Probe). […]
The inhibitory activity of the synthesized materials against the PAR-2 was evaluated using the protocol as described above, and profiles of the assay for Compounds 45 and 73 prepared in Examples 1 and 2 were shown in FIGS. 1 and 2.

Cytotoxicity (CC50) = type: cell-based

activation of the PAR-2 (Flag/Myc double staining, merged image) (PAR-2 [1]) | IC50 (PAR-2 [2]) | IC50 (PAR-2 [4]) | SMILES | trans-epidermal water loss (TEWL) ([3]; FIG. 5) | skin hydration in stratum cornea ([3]; FIG. 6) | skin thickness ([3]; FIG. 7) | CC50 (Cytotoxicity (CC50))
activation of the PAR-2 was suppressed | 339 µM | 73.8 µM | Cc1cccc(-c2c(C)nc3ccc(C(=O)N4CCCCC4)cn23)c1 [Compound 45] | effectively restore | effectively restore | statistically significant improvement effect | > 100 µM
 | 401 µM | 76.7 µM | Cc1nc2ccc(C(=O)N3CCN(C(=O)C4CCCCC4)CC3)cn2c1-c1ccccc1 [Compound 73, (4-(cyclohexanecarbonyl)piperazin-1-yl)(2-methyl-3-phenylimidazo[1,2-a]pyridin-6-yl)methanone] |  |  |  | > 100 µM
